Measured values reported in US10597368B2, “Syringolin analogues and methods of making and using same” (BROWN UNIVERSITY, priority 2015, dated 2020).

target: T1, human 20S proteasome (hs20S), chymotrypsin-like β5-subunits (Homo sapiens, UniProt P20618+P28074); assay: In vitro 20S peptidase inhibition kinetics, chymotrypsin-like activity (Suc-LLVY-AMC); assay type: biochemical; conditions: second-order rate constant, Suc-LLVY-AMC substrate, 37° C.
T1 construct: purchased R&D
Procedure: In vitro 20S peptidase inhibition assays were recorded in a 384-well plate at a SpectraMax M5 (Molecular devises) plate-reader. Therefore, 5 nM human 20S (R&D) was incubated in buffer R (50 mM HEPES-KOH, pH 7.5, 0.5 mM EDTA) with 100 μM of the fluorogenic peptide substrates Suc-LLVY-AMC or Boc-LRR-AMC. Reactions were started by adding various amounts of inhibitors (5 nM to 500 μM) to a final volume of 30 μL and peptide hydrolysis was continuously monitored for 90 min by changes in fluorescence (excitation 380 nm; emission 440 nm) at 37° C. The kobs values were determined by fitting the raw data to equation (1). The slopes of the plots of kobsversus I gave an apparent value of kobs/I, also referred to as kinact/Ki for an irreversible inhibitor, which was then corrected by equation (2) to compensate for the effect of substrate competition, where app is the apparent value at different inhibitor concentrations.
Using purified human 20S proteasome (hs20S) and a fluorogenic substrate (Suc-LLVY-AMC), in vitro assays were performed to systematically assess proteasome inhibition by the syringolin analogues. The choice of substrate was based on the fact that it is preferentially acted upon by the chymotrypsin-like β5-subunits of the proteasome due to the aromatic tyrosine residue at the scissile bond (i.e., P1 position).
From measurements of the rates of hydrolysis of the fluorogenic substrate by the proteasome in the presence of increasing concentrations of each inhibitor, second-order rate constants kin/Ki (M^−1 s^−1) were determined (Table 1), which reflect both the affinity of the non-covalent binding (Ki) and the rate of the chemical reaction with the enzyme (kin). All of the syringolin analogues were capable in inhibiting the chymotrypsin-like activity of hs20S. Without wishing to be limited by any theory, consistent with the design predictions, the most significant contributor to the apparent second-order rate constants of the compounds was their binding affinity (Ki) rather than the rates of inhibition.
In vitro 20S peptidase inhibition assays were recorded in a 384-well plate at a SpectraMax M5 (Molecular Devices) plate-reader. Therefore, 5 nM human 20S (R&D) was incubated in buffer R (50 mM HEPEs-KOH, pH 7.5, 0.5 mM EDTA) with 100 μM of the fluorogenic peptide substrate Suc-LLVY-AMC. Reactions were started by adding various amounts of inhibitors 5 nM to 500 μM) to a final volume of 30 μL and peptide hydrolysis was continuously monitored for 90 minutes by changes in fluorescence (excitation 380 nm; emission 440 nm) at 37 degrees Celsius. The kobs values were determined by fitting the raw data to equation 1. The slopes of the plots of kobs versus I gave an apparent value of kob/I, also referred to as kinact/Ki for an irreversible inhibitor, which was then corrected by equation 2 to compensate for the effect of substrate competition, where app is the apparent value at different inhibitor concentrations.

SMILES | hs20S kin/Ki
COC(=O)[C@@H](NC(=O)N[C@@H](Cc1cccc(F)c1)C(=O)N[C@H]1CCCCNC(=O)/C=C/[C@H](Cc2cccc(F)c2)NC1=O)C(C)C [Compound 31, (S)-methyl 2-(3-((S)-1-((5S,8S,E)-5-(3-fluorobenzyl)-2,7-dioxo-1,6-diazacyclododec-3-en-8-ylamino)-3-(3-fluorophenyl)-1-oxopropan-2-yl)ureido)-3-methylbutanoate] | 5016 M⁻¹ s⁻¹
COC(=O)[C@@H](NC(=O)N[C@@H](Cc1cccc(C)c1)C(=O)N[C@H]1CCCCNC(=O)/C=C/[C@H](Cc2cccc(F)c2)NC1=O)C(C)C [Compound 28, (S)-methyl 2-(3-((S)-1-((5S,8S,E)-S-(3 fluorobenzyl)-2,7-dioxo-1,6-diazacyclododec-3-en-8-ylamino)-1-oxo-3-m-tolylpropan-2-yl)ureido)-3-methylbutanoate] | 12866 M⁻¹ s⁻¹
COC(=O)[C@@H](NC(=O)N[C@@H](Cc1ccc(Cl)cc1)C(=O)N[C@H]1CCCCNC(=O)/C=C/[C@H](Cc2cccc(F)c2)NC1=O)C(C)C [Compound 26, (S)-methyl 2-(3-((S)-3-(4-chlorophenyl)-1-((5S,8S,E)-5-(3-fluorobenzyl)-2,7-dioxo-1,6-diazacyclododec-3-en-8-ylamino)-1-oxopropan-2-yl)ureido)-3-methylbutanoate] | 12605 M⁻¹ s⁻¹
COC(=O)[C@@H](NC(=O)N[C@@H](Cc1ccccc1)C(=O)N[C@H]1CCCCNC(=O)/C=C/[C@H](Cc2ccccc2F)NC1=O)C(C)C [Compound 19, (S)-methyl 2-(3-((S)-1-((5S,8S,E)-5-(2-fluorobenzyl)-2,7-dioxo-1,6-diazacyclododec-3-en-8-ylamino)-1-oxo-3-phenylpropan-2-yl)ureido)-3-methylbutanoate] | 5877 M⁻¹ s⁻¹
COC(=O)[C@@H](NC(=O)N[C@H](C(=O)N[C@H]1CCCCNC(=O)/C=C/[C@H](Cc2cc(F)cc(F)c2)NC1=O)C(C)C)C(C)C [Compound 7, (S)-methyl 2-(3-((S)-1-(((5S,8S,E)-5-(3,5-difluorobenzyl)-2,7-dioxo-1,6-diazacyclododec-3-en-8-yl)amino)-3-methyl-1-oxobutan-2-yl)ureido)-3-methylbutanoate] | 1,579 M^−1s^−1
COC(=O)[C@@H](NC(=O)N[C@@H](Cc1cccc(F)c1)C(=O)N[C@H]1CCCCNC(=O)/C=C/[C@H](Cc2ccccc2F)NC1=O)C(C)C [Compound 23, (S)-methyl 2-(3-((S)-1-((5S,8S,E)-5-(2-fluorobenzyl)-2,7-dioxo-1,6-diazacyclododec-3-en-8-ylamino)-3-(3-fluorophenyl)-1-oxopropan-2-yl)ureido)-3-methylbutanoate] | 2199 M⁻¹ s⁻¹
COC(=O)[C@@H](NC(=O)N[C@@H](Cc1ccccc1F)C(=O)N[C@H]1CCCCNC(=O)/C=C/[C@H](Cc2cccc(F)c2)NC1=O)C(C)C [Compound 30, (S)-methyl 2-(3-((S)-1-((5S,8S,E)-S-(3-fluorobenzyl)-2,7-dioxo-1,6-diazacyclododec-3-en-8-ylamino)-3-(2-fluorophenyl)-1-oxopropan-2 yl)ureido)-3-methylbutanoate] | 12202 M⁻¹ s⁻¹
COC(=O)[C@@H](NC(=O)N[C@@H](Cc1cccc(Cl)c1)C(=O)N[C@H]1CCCCNC(=O)/C=C/[C@H](Cc2cccc(F)c2)NC1=O)C(C)C [Compound 25, (S)-methyl 2-(3-((S)-3-(3-chlorophenyl)-1-((5S,8S,E)-5-(3-fluorobenzyl)-2,7-dioxo-1,6-diazacyclododec-3-en-8-ylamino)-1-oxopropan-2-yl)ureido)-3-methylbutanoate] | 8532 M⁻¹ s⁻¹
COC(=O)[C@@H](NC(=O)N[C@@H](Cc1cccc(Cl)c1)C(=O)N[C@H]1CCCCNC(=O)/C=C/[C@H](Cc2ccccc2F)NC1=O)C(C)C [Compound 18, (S)-methyl 2-(3-((S)-3-(3-chlorophenyl)-1-((5S,8S,E)-5-(2-fluorobenzyl)-2,7-dioxo-1,6-diazacyclododec-3-en-8-ylamino)-1-oxopropan-2-yl)ureido)-3-methylbutanoate] | 4656 M⁻¹ s⁻¹
COC(=O)[C@@H](NC(=O)N[C@@H](Cc1ccccc1)C(=O)N[C@H]1CCCCNC(=O)/C=C/[C@H](Cc2cccc(F)c2)NC1=O)C(C)C [Compound 27] | 14336 M⁻¹ s⁻¹
COC(=O)[C@@H](NC(=O)N[C@@H](Cc1ccccc1Cl)C(=O)N[C@H]1CCCCNC(=O)/C=C/[C@H](Cc2cccc(F)c2)NC1=O)C(C)C [Compound 24, (S)-methyl 2-(3-((S)-3-(2-chlorophenyl)-1-((5S,8S,E)-5-(3-fluorobenzyl)-2,7-dioxo-1,6-diazacyclododec-3-en-8-ylamino)-1-oxopropan-2-yl)ureido)-3-methylbutanoate] | 2749 M⁻¹ s⁻¹
COC(=O)[C@@H](NC(=O)N[C@@H](Cc1ccccc1Cl)C(=O)N[C@H]1CCCCNC(=O)/C=C/[C@H](Cc2ccccc2F)NC1=O)C(C)C [Compound 17, (S)-methyl 2-(3-((S)-3-(2-chlorophenyl)-1-((5S,8S,E)-5-(2-fluorobenzyl)-2,7-dioxo-1,6-diazacyclododec-3-en-8-ylamino)-1-oxopropan-2-yl)ureido)-3-methylbutanoate] | 7271 M⁻¹ s⁻¹
COC(=O)[C@@H](NC(=O)N[C@@H](Cc1cccc(C)c1)C(=O)N[C@H]1CCCCNC(=O)/C=C/[C@H](Cc2ccccc2F)NC1=O)C(C)C [Compound 20, (S)-methyl 2-(3-((S)-1-((5S,8S,E)-5-(2-fluorobenzyl)-2,7-dioxo-1,6-diazacyclododec-3-en-8-ylamino)-1-oxo-3-m-tolylpropan-2-yl)ureido)-3-methylbutanoate] | 3797 M⁻¹ s⁻¹
COC(=O)[C@@H](NC(=O)N[C@H](C(=O)N[C@H]1CCCCNC(=O)/C=C/[C@H](Cc2cccc(F)c2)NC1=O)C(C)C)C(C)C [Compound 6, (S)-methyl 2-(3-((S)-1-(((5S,8S,E)-5-(3-fluorobenzyl)-2,7-dioxo-1,6-diazacyclododec-3-en-8-yl)amino)-3-methyl-1-oxobutan-2-yl)ureido)-3-methylbutanoate] | 2,471 M^−1s^−1
COC(=O)[C@@H](NC(=O)N[C@@H](Cc1ccc(C)cc1)C(=O)N[C@H]1CCCCNC(=O)/C=C/[C@H](Cc2cccc(F)c2)NC1=O)C(C)C [Compound 29, (S)-methyl 2-(3-((S)-1-((5S,8S,E)-S-(3-fluorobenzyl)-2,7-dioxo-1,6-diazacyclododec-3-en-8-ylamino)-1-oxo-3-p-tolylpropan-2 yl)ureido)-3-methylbutanoate] | 11670 M⁻¹ s⁻¹
COC(=O)[C@@H](NC(=O)N[C@@H](Cc1cccc(C(F)(F)F)c1)C(=O)N[C@H]1CCCCNC(=O)/C=C/[C@H](Cc2cccc(F)c2)NC1=O)C(C)C [Compound 32, (S)-methyl 2-(3-((S)-1-((5S,8S,E)-5-(3-fluorobenzyl)-2,7-dioxo-1,6-diazacyclododec-3-en-8-ylamino)-1-oxo-3-(3-(trifluoromethyl)phenyl)propan-2-yl)ureido)-3-methylbutanoate] | 4531 M⁻¹ s⁻¹
COC(=O)[C@@H](NC(=O)N[C@@H](Cc1ccc(C)cc1)C(=O)N[C@H]1CCCCNC(=O)/C=C/[C@H](Cc2ccccc2F)NC1=O)C(C)C [Compound 21, (S)-methyl 2-(3-((S)-1-((5S,8S,E)-5-(2-fluorobenzyl)-2,7-dioxo-1,6-diazacyclododec-3-en-8-ylamino)-1-oxo-3-p-tolylpropan-2-yl)ureido)-3-methylbutanoate] | 7332 M⁻¹ s⁻¹
